Assay type in all cases: in vivo
The test system of assay [1] is mice. Nature of the assay: Amphetamine-induced hyperlocomotion (open field). As to conditions: drug 2 amphetamine SC. As for the experimental part: Table 2, below, indicates the locomotor responses of mice treated with various combinations of alpha-2B receptor agonists and the psychostimulant amphetamine. Drug 1 was administered 30 minutes after the animal was placed in the open field. Drug 2 was administered subcutaneously (SC) at 45 minutes after the animal was placed in the open field (15 minutes after drug 1). AUC indicates the total amount of locomotor activity after administration of drug 2. “% decrease activity” indicates the percentage decrease in total activity relative to the Vehicle+Amphetamine group. ° indicates significant difference (P<0.05) relative to Vehicle+Amphetamine treated animals. * indicates significant difference (P<0.05) relative to Vehicle+Vehicle treated animals.
(§1) Amphetamine- or cocaine-induced hyperactivity. Mice were placed in an open field apparatus (FlexField, San Diego Instruments, San Diego, Calif.). After 30 minutes of habituation, they received a vehicle or haloperidol injection or injection of alpha-2B receptor agonist followed by an injection of amphetamine (2 mg/kg, s.c.) or cocaine (10 mg/kg, i.p.) at minute 45. Their activity levels were subsequently measured for another 1 hour post-injection. Total activity over each 5 minute bin (21 total bins) was added to establish activity curve over the 105 minute testing.
(§2) For i.p. administration, the compounds are formulated in H2O with 0.5% DMSO and given in a volume of 1 ml/kg body weight by injecting into the intraperitoneal cavity. For p.o. administration, the compounds are formulated in H2O with 0.5% DMSO and given in a volume of 2 ml/kg body weight using a 25-gauge, 1.5 inch gavage needle that is slowly inserted through the esophagus into the stomach.

The test system of assay [2] is mice. The assay is described as follows: Cocaine-induced hyperlocomotion (open field). As to conditions: drug 2 cocaine SC; for % DECREASE ACTIVITY: relative to Vehicle+Cocaine. The protocol:
Table 3, below, indicates the locomotor responses of mice treated with various combinations of alpha-2B receptor agonists and the psychostimulant cocaine. Drug 1 was administered 30 minutes after the animal was placed in the open field. Drug 2 was administered subcutaneously (SC) at 45 minutes after the animal was placed in the open field (15 minutes after drug 1). AUC indicates the total amount of locomotor activity after administration of drug 2. “% decrease activity” indicates the percentage decrease in total activity relative to the Vehicle+Cocaine group. ° indicates significant difference (P<0.05) relative to Vehicle+Cocaine treated animals. * indicates significant difference (P<0.05) relative to Vehicle+Vehicle treated animals.
as §1, §2

Assay [3] relates to nigrostriatal-lesioned rats. The assay is described as follows: Nigrostriatal-lesion-induced rotational behavior following amphetamine administration. The following applies: relative to Vehicle+Amphetamine, drug 1 0.3 mg/kg PO, drug 2 amphetamine SC. As for the experimental part: Table 4, below, indicates the changes in rotational behavior in nigrostriatal-lesioned rats treated with various alpha-2B receptor agonists and the psychostimulant amphetamine. Drug 1 was administered 15 minutes before amphetamine, and 10 minutes post-amphetamine, the animals were placed into the rotometer for 30 or 60 minutes. “% decrease rotations” indicates the percentage decrease in total rotations relative to the Vehicle+Amphetamine group. ^⋄ indicates significant difference (P<0.05) relative to Vehicle+Amphetamine treated animals. * indicates significant difference (P<0.05) relative to Vehicle+Vehicle treated animals.
Amphetamine-induced rotational behavior. Pre-Apomorphine-screened (rotated) rats (with lesions ≧95% DA cell loss) were purchased from Charles Rivers Laboratories. Animals were given ˜4 days to acclimate prior to testing. All animals weighted 250-300 g at the beginning of the study. Animals were treated with various combinations of vehicle or alpha-2B receptor agonist and amphetamine.
Vehicle or alpha-2B receptor agonist was administered (p.o.) 15 minutes before amphetamine (2 mg/kg s.c.). Rotational behavior was assessed 15 minutes post-amphetamine administration and was monitored for 60 minutes using a Rotometer system from San Diego Instruments (San Diego, Calif.).
as §2

The record followed here is patent US20110160265A1, “METHOD OF TREATING MOTOR DISORDERS WITH ALPHA-2B ADRENERGIC RECEPTOR AGONISTS” (priority 2007, published 2011).

Consider `O=C1c2ccccc2CC[C@H]1Cc1c[nH]c(=S)[nH]1` [Compound E], for which the “% DECREASE ACTIVITY REL TO VEH + AMPH” value is given as 15% * in assay [1] (drug 1 0.01 mg/kg PO); 58% ^⋄ in assay [1] (drug 1 0.03 mg/kg PO); 66% ^⋄ in assay [1] (drug 1 0.1 mg/kg PO); 49% ^⋄ * in assay [1] (drug 1 1 mg/kg PO); 55% ^⋄ in assay [1] (drug 1 10 mg/kg PO). The “TOTAL ACTIVITY POST-AMPHETAMINE (AUC)” value came out at 11419.2 ± 550.4 in assay [1] (drug 1 0.01 mg/kg PO); 5616.8 ± 618.2 in assay [1] (drug 1 0.03 mg/kg PO); 4623.8 ± 1166.7 in assay [1] (drug 1 0.1 mg/kg PO); 6867.3 ± 979.3 in assay [1] (drug 1 1 mg/kg PO); 6026.0 ± 1007.9 in assay [1] (drug 1 10 mg/kg PO). Further, the “TOTAL ACTIVITY POST-COCAINE (AUC)” value stood at 5036.5 ± 464.2 in assay [2] (drug 1 0.01 mg/kg PO), 5033.5 ± 503.8 in assay [2] (drug 1 0.03 mg/kg PO), 6263.0 ± 436.6 in assay [2] (drug 1 0.1 mg/kg PO) and 3662.1 ± 1458.2 in assay [2] (drug 1 0.3 mg/kg PO). For the same compound, the “% DECREASE ACTIVITY” value in assay [2] (drug 1 0.01 mg/kg PO) was determined as 52% ^⋄ *; in assay [2] (drug 1 0.03 mg/kg PO), 52% ^⋄ *; in assay [2] (drug 1 0.1 mg/kg PO), 40% ^⋄ *; in assay [2] (drug 1 0.3 mg/kg PO), 65% ^⋄. Moreover, the “% DECREASE ROTATIONS” value in assay [3] worked out at 58% ^⋄ *.
